Data: patent US6432415B1, “Pharmaceutical gel and aerosol formulations and methods to administer the same to skin and mucosal surfaces” (Axrix Laboratories, Inc., priority 1999, dated 2002)
Values after ≈ are worked out from the molar mass of the structure shown.

Columns and labels:
Type in all cases: physicochemical
[1] = Solubility of Propellant 152a in aqueous and ethanol/water solvents, with or without ethyl cellulose
Method: In one aspect, the propellant is 1,1-difluoroethane also known as Propellant 152a, commercially available under the trade mark Dymel®. Propellant 152a is slightly soluble in aqueous solvents (solubility of less than 1% by weight).
The inventors have experimented with ethanol as a cosolvent to be used in conjunction with Propellant 152a. When water is added to the ethanol/Propellant 152a mixture, the solubility of Propellant 152a decreases. […] This unexpected increase in solubility was not observed when hydroxyethyl cellulose or hydroxypropyl cellulose was used instead of ethyl cellulose.

[2] = Solubility of Amlexanox in solvents and at different pH
Method: To illustrate the many aspects of the present invention, it is provided herein several Examples of formulations which comprise a specific not-very-soluble drug known as Amlexanox or 2-amino-7-(1-methylethyl)-5-oxo-5H-[1]benzopyrano-[2,3-b]-pyridine-3-carboxylic acid. Amlexanox is not very soluble in lower alkyl alcohols (0.58 mg/mL, in dehydrated ethanol) or water (0.005 mg/mL). However, solubility of Amlexanox increases with pH. […] Thus, at any given time, Amlexanox may be present in the formulation as a solution or suspension or both.

[3] = Solubility of Amlexanox in 95% ethanol with imidazole (visual observation); settings: 200 mM imidazole vs no imidazole
Method: Amlexanox (4.8 mg to 20.5 mg) was added to seven glass scintillation vials. 95% Ethanol (in 5-100 uL aliquots) with various concentrations of imidazole (0-200 mM) was added to the vials containing Amlexanox. The total volume of 95% ethanol added to result in Amlexanox solubilization (by visual observation) was recorded.

| solubility of Propellant 152a ([1]; aqueous solvents) | solubility of Propellant 152a ([1]; ethyl cellulose about 0.7% to about 1.4%, ethanol/water (80:20)) | solubility of Propellant 152a ([1]; ethyl cellulose about 0.75% to about 10% added to ethanol or ethanol/water mixtures) [%] | solubility of Propellant 152a ([1]; mixture of ethanol/water (80:20), no ethyl cellulose) | Structure (SMILES) | solubility ([2]; aqueous buffer, pH 3.0) [µg/mL] | solubility ([2]; in water) [µg/mL] | solubility ([2]; organic solvent or mixture, in dehydrated ethanol) [µg/mL] | solubility ([2]; pH 5.96, aqueous buffer) [µg/mL] | solubility in 95% ethanol with 200 mM imidazole relative to absence of imidazole [3] |
| --- | --- | --- | --- | --- | --- | --- | --- | --- | --- |
| less than 1 % by weight | 62-64% | 62 to 64 | about 49% | CC(F)F [Propellant 152a, 1,1-difluoroethane] | – | – | – | – | – |
| – | – | – | – | CC(C)c1ccc2oc3nc(N)c(C(=O)O)cc3c(=O)c2c1 [Amlexanox, 2-amino-7-(1-methylethyl)-5-oxo-5H-[1]benzopyrano-[2,3-b]-pyridine-3-carboxylic acid] | 12 (≈ 40.2 µM) | 5 (≈ 16.8 µM) | 580 (≈ 1940 µM) | 15300 (≈ 51300 µM) | approximately 7.5 fold |
